Reference: US20150105252A1, “SUBSTITUTED PYRAZOLES AS HERBICIDES” (E I DU PONT DE NEMOURS AND COMPANY, priority 2013, published 2015)

Tests used:
field violet = test: Test D preemergence; assay type: in vivo, Viola arvensis; settings: scale 0 to 100
Summary of the method: (§1)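 Postemergence activity was tested on plants at the 1- to 4-leaf stage (2–18 cm) grown in peat-based medium, and preemergence activity on seeds in silt loam, with chemicals in a surfactant-containing non-phytotoxic solvent. Controlled-environment growth lasted 14–21 days before visual 0–100 scoring.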

speedwell = test: Test D preemergence; assay type: in vivo, Veronica persica; settings: scale 0 to 100
Summary of the method: as §1

blackgrass = test: Test D postemergence; assay type: in vivo, Alopecurus myosuroides; settings: scale 0 to 100
Summary of the method: as §1

canarygrass = test: Test D postemergence; assay type: in vivo, Phalaris minor; settings: scale 0 to 100
Summary of the method: as §1

kochia = test: Test D postemergence; assay type: in vivo, Kochia scoparia; settings: scale 0 to 100
Summary of the method: as §1

chamomile = test: Test D postemergence; assay type: in vivo, Matricaria inodora; settings: scale 0 to 100
Summary of the method: as §1

barley, spring = test: Test D postemergence; assay type: in vivo, Hordeum vulgare; settings: scale 0 to 100
Summary of the method: as §1

barley, winter = test: Test D postemergence; assay type: in vivo, Hordeum vulgare; settings: scale 0 to 100
Summary of the method: as §1

large crabgrass = test: Test F preemergence; assay type: in vivo, Digitaria sanguinalis
Summary of the method: (§2)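 Percent-control style visual scores, from 0 (no effect) to 100 (complete control), were given relative to controls. Treatment timing: preemergence on silt loam plantings, or postemergence at 1- to 4-leaf stage. Evaluation came 14 to 21 days after spraying, greenhouse conditions.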

goosegrass = test: Test F preemergence; assay type: in vivo, Eleusine indica
Summary of the method: as §2

johnsongrass = test: Test F preemergence; assay type: in vivo, Sorghum halepense
Summary of the method: as §2

common ragweed = test: Test F preemergence; assay type: in vivo, Ambrosia elation
Summary of the method: as §2

arrowleaf sida = test: Test F preemergence; assay type: in vivo, Sida rhombifolia
Summary of the method: as §2

field bindweed = test: Test F preemergence; assay type: in vivo, Convolvulus arvensis
Summary of the method: as §2

[1] = Preemergence, 62 g ai/ha, scale 0 to 100
[2] = Preemergence, 125 g ai/ha, scale 0 to 100
[3] = preemergence, 8 g ai/ha, scale 0 to 100, 100 is complete control
[4] = Preemergence, 16 g ai/ha, scale 0 to 100

With CCOc1cc(C(=O)NC(C)C)nn1Cc1ccnc(C(F)(F)F)c1 [Compound 188] the “Plant response rating, Field Violet” value (field violet; 62 g ai/ha) was 100, the “Plant response rating, Field Violet” value (field violet; 125 g ai/ha) was 100 and the “Plant response rating, Field Violet” value (field violet; 250 g ai/ha) was 100. The “Plant response rating, Speedwell” value (speedwell; 62 g ai/ha) was 100, the “Plant response rating, Speedwell” value (speedwell; 125 g ai/ha) was 100 and the “Plant response rating, Speedwell” value (speedwell; 250 g ai/ha) was 100. For the same compound, the “Blackgrass plant response rating” value (blackgrass; Postemergence, 31 g ai/ha) was 15, the “Blackgrass plant response rating” value (blackgrass; Postemergence, 125 g ai/ha) was 35 and the “Blackgrass plant response rating” value (blackgrass; Postemergence, 250 g ai/ha) was 45. The “Blackgrass plant response rating” value (blackgrass; postemergence, 62 g ai/ha) was 15, the “Canarygrass plant response rating” value (canarygrass; Postemergence, 31 g ai/ha) was 15 and the “Canarygrass plant response rating” value (canarygrass; Postemergence, 125 g ai/ha) was 20. The “Canarygrass plant response rating” value (canarygrass; Postemergence, 250 g ai/ha) was 35, the “Canarygrass plant response rating” value (canarygrass; postemergence, 62 g ai/ha) was 15 and the “Kochia plant response rating” value (kochia; Postemergence, 31 g ai/ha) was 75. The “Kochia plant response rating” value (kochia; Postemergence, 125 g ai/ha) was 80, the “Kochia plant response rating” value (kochia; Postemergence, 250 g ai/ha) was 85 and the “Kochia plant response rating” value (kochia; postemergence, 62 g ai/ha) was 75. The “Chamomile plant response rating” value (chamomile; Postemergence, 31 g ai/ha) was 65, the “Chamomile plant response rating” value (chamomile; Postemergence, 125 g ai/ha) was 70 and the “Chamomile plant response rating” value (chamomile; Postemergence, 250 g ai/ha) was 75. For the same compound, the “Chamomile plant response rating” value (chamomile; postemergence, 62 g ai/ha) was 65, the “Barley, Spring plant response rating” value (barley, spring; Postemergence, 31 g ai/ha) was 15 and the “Barley, Spring plant response rating” value (barley, spring; Postemergence, 125 g ai/ha) was 25. For the same compound, the “Barley, Spring plant response rating” value (barley, spring; Postemergence, 250 g ai/ha) was 65, the “Barley, Spring plant response rating” value (barley, spring; postemergence, 62 g ai/ha) was 15 and the “Barley, Winter plant response rating” value (barley, winter; Postemergence, 31 g ai/ha) was 15. The “Barley, Winter plant response rating” value (barley, winter; Postemergence, 125 g ai/ha) was 40, the “Barley, Winter plant response rating” value (barley, winter; Postemergence, 250 g ai/ha) was 65 and the “Barley, Winter plant response rating” value (barley, winter; postemergence, 62 g ai/ha) was 15. For the same compound, the “Plant response rating, Large Crabgrass” value (large crabgrass; [1]) was 100, the “Plant response rating, Large Crabgrass” value (large crabgrass; [2]) was 100 and the “Plant response rating, Large Crabgrass” value (large crabgrass; [3]) was 90. The “Plant response rating, Large Crabgrass” value (large crabgrass; preemergence, scale 0 to 100, 100 is complete control) was 100, the “Plant response rating, Goosegrass” value (goosegrass; [1]) was 98 and the “Plant response rating, Goosegrass” value (goosegrass; [2]) was 100. The “Plant response rating, Goosegrass” value (goosegrass; [3]) was 5, the “Plant response rating, Johnsongrass” value (johnsongrass; [1]) was 80 and the “Plant response rating, Johnsongrass” value (johnsongrass; [2]) was 95. The “Plant response rating, Johnsongrass” value (johnsongrass; [3]) was 0, the “Plant response rating, Common Ragweed” value (common ragweed; [4]) was 30 and the “Plant response rating, Common Ragweed” value (common ragweed; [1]) was 90. For the same compound, the “Plant response rating, Common Ragweed” value (common ragweed; [2]) was 90, the “Plant response rating, Common Ragweed” value (common ragweed; [3]) was 0 and the “Plant response rating, Arrowleaf Sida” value (arrowleaf sida; [4]) was 0. The “Plant response rating, Arrowleaf Sida” value (arrowleaf sida; [1]) was 10, the “Plant response rating, Arrowleaf Sida” value (arrowleaf sida; [2]) was 20 and the “Plant response rating, Arrowleaf Sida” value (arrowleaf sida; [3]) was 0. The “Plant response rating, Field Bindweed” value (field bindweed; [4]) was 30, the “Plant response rating, Field Bindweed” value (field bindweed; [1]) was 40 and the “Plant response rating, Field Bindweed” value (field bindweed; [2]) was 100. For the same compound, the “Plant response rating, Field Bindweed” value (field bindweed; [3]) was 35.
